Results as given in ChEMBL document CHEMBL5108051, “Improving the Antimicrobial Performance of Amphiphilic Cationic Antimicrobial Peptides Using Glutamic Acid Full-Scan and Positive Charge Compensation Strategies” (J Med Chem, 2022).
≈ marks a conversion by molar mass, not a printed value. Square brackets hold non-standard residues; d marks the D form. Peptide text beside a SMILES is read from it. ξ: configuration not given here. Ile(3ξ) = CCC(C)[C@H](N)C(=O)O

Key:
Escherichia coli = experiment: Antibacterial activity against Escherichia coli ATCC 25922 assessed as growth inhibition measured after 18 to 24 hrs by CLSI based broth microdilution method; assay type: functional; conditions: time 18-24 hrs
Erythrocyte = experiment: Hemolytic activity against mouse RBC measured after 1 hrs; assay type: toxicity, cell-based
Staphylococcus aureus = experiment: Antibacterial activity against Staphylococcus aureus ATCC 25923 assessed as growth inhibition measured after 18 to 24 hrs by CLSI based broth microdilution method; assay type: functional; conditions: time 18-24 hrs
Bacillus subtilis = experiment: Antibacterial activity against Bacillus subtilis ATCC 23857 assessed as growth inhibition measured after 18 to 24 hrs by CLSI based broth microdilution method; assay type: functional; conditions: time 18-24 hrs
Pseudomonas aeruginosa = experiment: Antibacterial activity against Pseudomonas aeruginosa ATCC 27853 assessed as growth inhibition measured after 18 to 24 hrs by CLSI based broth microdilution method; assay type: functional; conditions: time 18-24 hrs
Klebsiella pneumoniae = experiment: Antibacterial activity against Klebsiella pneumoniae ATCC 700603 assessed as growth inhibition measured after 18 to 24 hrs by CLSI based broth microdilution method; assay type: functional; conditions: time 18-24 hrs

Structure (SMILES) | MIC (Escherichia coli) | MIC (Staphylococcus aureus) | MIC (Bacillus subtilis) | MIC (Pseudomonas aeruginosa) | MIC (Klebsiella pneumoniae) | MHC10 (Erythrocyte)
CCC(C)[C@H](NC(=O)[C@@H]1CCCN1C(=O)[C@H](CC(C)C)NC(=O)[C@@H](N)Cc1ccccc1)C(=O)N[C@H](C(=O)N[C@@H](C)C(=O)N[C@@H](CCCCN)C(=O)N[C@@H](CC(C)C)C(=O)N[C@@H](CC(C)C)C(=O)N[C@@H](CO)C(=O)N[C@@H](CCCCN)C(=O)N[C@@H](CC(C)C)C(=O)N[C@@H](CC(C)C)C(N)=O)C(C)C (some centres not stated) (H-FLP[Ile(3ξ)]VAKLLSKLL-NH2) | > 128 µM | 8 µM (≈ 11.6 µg/mL) | 4 µM (≈ 5.82 µg/mL) | > 128 µM | > 128 µM | 17.97 µM
CC(C)C[C@H](NC(=O)[C@H](CC(C)C)NC(=O)[C@H](CCC(=O)O)NC(=O)[C@H](CCCCN)NC(=O)[C@H](CC(C)C)NC(=O)[C@H](CC(C)C)NC(=O)[C@H](CCCCN)NC(=O)[C@H](CCCCN)NC(=O)[C@@H](NC(=O)[C@H](CCCCN)NC(=O)[C@@H]1CCCN1C(=O)[C@H](CC(C)C)NC(=O)[C@@H](N)Cc1ccccc1)C(C)C)C(N)=O (H-FLPKVKKLLKELL-NH2) | 16 µM (≈ 25.1 µg/mL) | 32 µM (≈ 50.2 µg/mL) | 8 µM (≈ 12.5 µg/mL) | 16 µM (≈ 25.1 µg/mL) | 16 µM (≈ 25.1 µg/mL) | > 256 µM
CC[C@H](C)[C@H](NC(=O)[C@@H]1CCCN1C(=O)[C@H](CC(C)C)NC(=O)[C@@H](N)Cc1ccccc1)C(=O)N[C@H](C(=O)N[C@@H](C)C(=O)N[C@@H](CCC(=O)O)C(=O)N[C@@H](CC(C)C)C(=O)N[C@@H](CC(C)C)C(=O)N[C@@H](CO)C(=O)NCC(=O)N[C@@H](CC(C)C)C(=O)N[C@@H](CC(C)C)C(N)=O)C(C)C (H-FLPIVAELLSGLL-NH2) | > 128 µM | > 128 µM | > 128 µM | > 128 µM | > 128 µM | > 256 µM
CCC(C)[C@H](NC(=O)[C@@H]1CCCN1C(=O)[C@H](CC(C)C)NC(=O)[C@@H](N)Cc1ccccc1)C(=O)N[C@H](C(=O)N[C@@H](CCCCN)C(=O)N[C@@H](CCCCN)C(=O)N[C@@H](CC(C)C)C(=O)N[C@@H](CC(C)C)C(=O)N[C@@H](CCCCN)C(=O)N[C@@H](CCC(=O)O)C(=O)N[C@@H](CC(C)C)C(=O)N[C@@H](CC(C)C)C(N)=O)C(C)C (some centres not stated) (H-FLP[Ile(3ξ)]VKKLLKELL-NH2) | 8 µM (≈ 12.4 µg/mL) | 4 µM (≈ 6.21 µg/mL) | 4 µM (≈ 6.21 µg/mL) | 8 µM (≈ 12.4 µg/mL) | 16 µM (≈ 24.8 µg/mL) | 53.73 µM
CC(C)C[C@H](NC(=O)[C@H](CC(C)C)NC(=O)CNC(=O)[C@H](CCC(=O)O)NC(=O)[C@H](CC(C)C)NC(=O)[C@H](CC(C)C)NC(=O)[C@H](CCCCN)NC(=O)[C@H](CCCCN)NC(=O)[C@@H](NC(=O)[C@H](CCCCN)NC(=O)[C@@H]1CCCN1C(=O)[C@H](CC(C)C)NC(=O)[C@@H](N)Cc1ccccc1)C(C)C)C(N)=O (H-FLPKVKKLLEGLL-NH2) | 16 µM (≈ 24 µg/mL) | 128 µM (≈ 192 µg/mL) | 128 µM (≈ 192 µg/mL) | 32 µM (≈ 47.9 µg/mL) | 64 µM (≈ 95.8 µg/mL) | > 256 µM
CC[C@H](C)[C@H](NC(=O)[C@@H]1CCCN1C(=O)[C@H](CC(C)C)NC(=O)[C@@H](N)Cc1ccccc1)C(=O)N[C@H](C(=O)N[C@@H](C)C(=O)N[C@@H](CCCCN)C(=O)N[C@@H](CC(C)C)C(=O)N[C@@H](CC(C)C)C(=O)N[C@@H](CO)C(=O)N[C@@H](CCC(=O)O)C(=O)N[C@@H](CC(C)C)C(=O)N[C@@H](CC(C)C)C(N)=O)C(C)C (H-FLPIVAKLLSELL-NH2) | > 128 µM | 16 µM (≈ 23.3 µg/mL) | 8 µM (≈ 11.6 µg/mL) | > 128 µM | > 128 µM | 73.97 µM
CC[C@H](C)[C@H](NC(=O)[C@H](CCC(=O)O)NC(=O)[C@H](CC(C)C)NC(=O)[C@@H](N)Cc1ccccc1)C(=O)N[C@H](C(=O)N[C@@H](C)C(=O)N[C@@H](CCCCN)C(=O)N[C@@H](CC(C)C)C(=O)N[C@@H](CC(C)C)C(=O)N[C@@H](CO)C(=O)NCC(=O)N[C@@H](CC(C)C)C(=O)N[C@@H](CC(C)C)C(N)=O)C(C)C (H-FLEIVAKLLSGLL-NH2) | > 128 µM | 16 µM (≈ 22.6 µg/mL) | 16 µM (≈ 22.6 µg/mL) | > 128 µM | > 128 µM | 16.06 µM
CC[C@H](C)[C@H](NC(=O)[C@@H]1CCCN1C(=O)[C@H](CC(C)C)NC(=O)[C@@H](N)Cc1ccccc1)C(=O)N[C@H](C(=O)N[C@@H](C)C(=O)N[C@@H](CCCCN)C(=O)N[C@@H](CC(C)C)C(=O)N[C@@H](CC(C)C)C(=O)N[C@@H](CCCCN)C(=O)NCC(=O)N[C@@H](CC(C)C)C(=O)N[C@@H](CC(C)C)C(N)=O)C(C)C (H-FLPIVAKLLKGLL-NH2) | > 128 µM | 8 µM (≈ 11.4 µg/mL) | 4 µM (≈ 5.7 µg/mL) | > 128 µM | > 128 µM | 27.66 µM
CCC(C)[C@H](NC(=O)[C@@H]1CCCN1C(=O)[C@H](CC(C)C)NC(=O)[C@@H](N)Cc1ccccc1)C(=O)N[C@H](C(=O)N[C@@H](CCCCN)C(=O)N[C@@H](CCCCN)C(=O)N[C@@H](CC(C)C)C(=O)N[C@@H](CC(C)C)C(=O)N[C@@H](CCC(=O)O)C(=O)N[C@@H](CCCCN)C(=O)N[C@@H](CC(C)C)C(=O)N[C@@H](CC(C)C)C(N)=O)C(C)C (some centres not stated) (H-FLP[Ile(3ξ)]VKKLLEKLL-NH2) | 8 µM (≈ 12.4 µg/mL) | 4 µM (≈ 6.21 µg/mL) | 4 µM (≈ 6.21 µg/mL) | 8 µM (≈ 12.4 µg/mL) | 16 µM (≈ 24.8 µg/mL) | 42.55 µM

Continued, in another order:

MIC (Escherichia coli) | MIC (Staphylococcus aureus) | MIC (Bacillus subtilis) | MIC (Pseudomonas aeruginosa) | MIC (Klebsiella pneumoniae) | Structure (SMILES) | MHC10 (Erythrocyte)
> 128 µM | > 128 µM | > 128 µM | > 128 µM | > 128 µM | CC[C@H](C)[C@H](NC(=O)[C@@H]1CCCN1C(=O)[C@H](CC(C)C)NC(=O)[C@@H](N)Cc1ccccc1)C(=O)N[C@H](C(=O)N[C@@H](C)C(=O)N[C@@H](CCCCN)C(=O)N[C@@H](CC(C)C)C(=O)N[C@@H](CC(C)C)C(=O)N[C@@H](CO)C(=O)NCC(=O)N[C@@H](CCC(=O)O)C(=O)N[C@@H](CC(C)C)C(N)=O)C(C)C (H-FLPIVAKLLSGEL-NH2) | > 256 µM
64 µM (≈ 92.2 µg/mL) | > 128 µM | > 128 µM | > 128 µM | > 128 µM | CC[C@H](C)[C@H](NC(=O)[C@@H]1CCCN1C(=O)[C@H](CC(C)C)NC(=O)[C@@H](N)Cc1ccccc1)C(=O)N[C@H](C(=O)N[C@@H](CCC(=O)O)C(=O)N[C@@H](CCCCN)C(=O)N[C@@H](CC(C)C)C(=O)N[C@@H](CC(C)C)C(=O)N[C@@H](CO)C(=O)NCC(=O)N[C@@H](CC(C)C)C(=O)N[C@@H](CC(C)C)C(N)=O)C(C)C (H-FLPIVEKLLSGLL-NH2) | > 256 µM
> 128 µM | > 128 µM | > 128 µM | > 128 µM | > 128 µM | CC[C@H](C)[C@H](NC(=O)[C@@H]1CCCN1C(=O)[C@H](CC(C)C)NC(=O)[C@@H](N)Cc1ccccc1)C(=O)N[C@@H](CCC(=O)O)C(=O)N[C@@H](C)C(=O)N[C@@H](CCCCN)C(=O)N[C@@H](CC(C)C)C(=O)N[C@@H](CC(C)C)C(=O)N[C@@H](CO)C(=O)NCC(=O)N[C@@H](CC(C)C)C(=O)N[C@@H](CC(C)C)C(N)=O (H-FLPIEAKLLSGLL-NH2) | > 256 µM
> 128 µM | > 128 µM | > 128 µM | > 128 µM | > 128 µM | CC[C@H](C)[C@H](NC(=O)[C@@H]1CCCN1C(=O)[C@H](CC(C)C)NC(=O)[C@@H](N)Cc1ccccc1)C(=O)N[C@H](C(=O)N[C@@H](C)C(=O)N[C@@H](CCCCN)C(=O)N[C@@H](CCC(=O)O)C(=O)N[C@@H](CC(C)C)C(=O)N[C@@H](CO)C(=O)NCC(=O)N[C@@H](CC(C)C)C(=O)N[C@@H](CC(C)C)C(N)=O)C(C)C (H-FLPIVAKELSGLL-NH2) | > 256 µM
> 128 µM | > 128 µM | > 128 µM | > 128 µM | > 128 µM | CC[C@H](C)[C@H](NC(=O)[C@@H]1CCCN1C(=O)[C@H](CC(C)C)NC(=O)[C@@H](N)Cc1ccccc1)C(=O)N[C@H](C(=O)N[C@@H](C)C(=O)N[C@@H](CCCCN)C(=O)N[C@@H](CC(C)C)C(=O)N[C@@H](CC(C)C)C(=O)N[C@@H](CO)C(=O)NCC(=O)N[C@@H](CC(C)C)C(=O)N[C@@H](CCC(=O)O)C(N)=O)C(C)C (H-FLPIVAKLLSGLE-NH2) | > 256 µM
> 128 µM | 16 µM (≈ 22.8 µg/mL) | 16 µM (≈ 22.8 µg/mL) | > 128 µM | > 128 µM | CC[C@H](C)[C@H](NC(=O)[C@@H]1CCCN1C(=O)[C@H](CC(C)C)NC(=O)[C@@H](N)Cc1ccccc1)C(=O)N[C@H](C(=O)N[C@@H](C)C(=O)N[C@@H](CCCCN)C(=O)N[C@@H](CC(C)C)C(=O)N[C@@H](CC(C)C)C(=O)N[C@@H](CCC(=O)O)C(=O)NCC(=O)N[C@@H](CC(C)C)C(=O)N[C@@H](CC(C)C)C(N)=O)C(C)C (H-FLPIVAKLLEGLL-NH2) | 69.93 µM
> 128 µM | > 128 µM | > 128 µM | > 128 µM | > 128 µM | CC[C@H](C)[C@H](NC(=O)[C@@H]1CCCN1C(=O)[C@H](CCC(=O)O)NC(=O)[C@@H](N)Cc1ccccc1)C(=O)N[C@H](C(=O)N[C@@H](C)C(=O)N[C@@H](CCCCN)C(=O)N[C@@H](CC(C)C)C(=O)N[C@@H](CC(C)C)C(=O)N[C@@H](CO)C(=O)NCC(=O)N[C@@H](CC(C)C)C(=O)N[C@@H](CC(C)C)C(N)=O)C(C)C (H-FEPIVAKLLSGLL-NH2) | > 256 µM
> 128 µM | > 128 µM | > 128 µM | > 128 µM | > 128 µM | CC[C@H](C)[C@H](NC(=O)[C@@H]1CCCN1C(=O)[C@H](CC(C)C)NC(=O)[C@@H](N)Cc1ccccc1)C(=O)N[C@H](C(=O)N[C@@H](C)C(=O)N[C@@H](CCCCN)C(=O)N[C@@H](CC(C)C)C(=O)N[C@@H](CCC(=O)O)C(=O)N[C@@H](CO)C(=O)NCC(=O)N[C@@H](CC(C)C)C(=O)N[C@@H](CC(C)C)C(N)=O)C(C)C (H-FLPIVAKLESGLL-NH2) | > 256 µM
